Tests used:
Assay in all cases: Competitive isoTOP-ABPP in situ (fragment-treated cells)
Format in all cases: cell-based
[1] = target: T1, cysteines in MDA-MB-231 and Ramos cells (Homo sapiens, UniProt Q99439)
T1 sequence (Q99439 1-309): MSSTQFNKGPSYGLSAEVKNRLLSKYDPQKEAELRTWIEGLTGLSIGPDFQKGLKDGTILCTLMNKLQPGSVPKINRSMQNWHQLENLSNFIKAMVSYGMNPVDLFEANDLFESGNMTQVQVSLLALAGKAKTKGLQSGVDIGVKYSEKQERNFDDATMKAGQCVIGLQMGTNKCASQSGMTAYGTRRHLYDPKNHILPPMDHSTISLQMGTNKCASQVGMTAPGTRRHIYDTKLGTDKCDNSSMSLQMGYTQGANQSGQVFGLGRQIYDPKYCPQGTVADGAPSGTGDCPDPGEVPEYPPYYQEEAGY

[2] = target: T2, cysteines in MDA-MB-231 and Ramos cells (Homo sapiens, UniProt Q9NS86)
T2 sequence (Q9NS86 1-450): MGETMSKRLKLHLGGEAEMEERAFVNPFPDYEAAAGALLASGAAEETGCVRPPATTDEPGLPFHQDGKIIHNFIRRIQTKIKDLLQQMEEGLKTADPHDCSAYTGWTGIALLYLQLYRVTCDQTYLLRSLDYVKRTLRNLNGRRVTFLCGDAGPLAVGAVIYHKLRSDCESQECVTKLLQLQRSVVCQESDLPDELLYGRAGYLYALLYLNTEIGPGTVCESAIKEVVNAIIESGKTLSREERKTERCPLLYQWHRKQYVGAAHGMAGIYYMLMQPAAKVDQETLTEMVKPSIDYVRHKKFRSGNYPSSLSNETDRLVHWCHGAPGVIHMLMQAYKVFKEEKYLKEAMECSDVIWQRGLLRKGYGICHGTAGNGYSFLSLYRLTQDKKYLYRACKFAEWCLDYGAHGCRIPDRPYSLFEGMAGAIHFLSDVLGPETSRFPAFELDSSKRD

[3] = target: T3, cysteines in MDA-MB-231 and Ramos cells (Homo sapiens, UniProt Q13428)
T3 sequence (Q13428 1-1488): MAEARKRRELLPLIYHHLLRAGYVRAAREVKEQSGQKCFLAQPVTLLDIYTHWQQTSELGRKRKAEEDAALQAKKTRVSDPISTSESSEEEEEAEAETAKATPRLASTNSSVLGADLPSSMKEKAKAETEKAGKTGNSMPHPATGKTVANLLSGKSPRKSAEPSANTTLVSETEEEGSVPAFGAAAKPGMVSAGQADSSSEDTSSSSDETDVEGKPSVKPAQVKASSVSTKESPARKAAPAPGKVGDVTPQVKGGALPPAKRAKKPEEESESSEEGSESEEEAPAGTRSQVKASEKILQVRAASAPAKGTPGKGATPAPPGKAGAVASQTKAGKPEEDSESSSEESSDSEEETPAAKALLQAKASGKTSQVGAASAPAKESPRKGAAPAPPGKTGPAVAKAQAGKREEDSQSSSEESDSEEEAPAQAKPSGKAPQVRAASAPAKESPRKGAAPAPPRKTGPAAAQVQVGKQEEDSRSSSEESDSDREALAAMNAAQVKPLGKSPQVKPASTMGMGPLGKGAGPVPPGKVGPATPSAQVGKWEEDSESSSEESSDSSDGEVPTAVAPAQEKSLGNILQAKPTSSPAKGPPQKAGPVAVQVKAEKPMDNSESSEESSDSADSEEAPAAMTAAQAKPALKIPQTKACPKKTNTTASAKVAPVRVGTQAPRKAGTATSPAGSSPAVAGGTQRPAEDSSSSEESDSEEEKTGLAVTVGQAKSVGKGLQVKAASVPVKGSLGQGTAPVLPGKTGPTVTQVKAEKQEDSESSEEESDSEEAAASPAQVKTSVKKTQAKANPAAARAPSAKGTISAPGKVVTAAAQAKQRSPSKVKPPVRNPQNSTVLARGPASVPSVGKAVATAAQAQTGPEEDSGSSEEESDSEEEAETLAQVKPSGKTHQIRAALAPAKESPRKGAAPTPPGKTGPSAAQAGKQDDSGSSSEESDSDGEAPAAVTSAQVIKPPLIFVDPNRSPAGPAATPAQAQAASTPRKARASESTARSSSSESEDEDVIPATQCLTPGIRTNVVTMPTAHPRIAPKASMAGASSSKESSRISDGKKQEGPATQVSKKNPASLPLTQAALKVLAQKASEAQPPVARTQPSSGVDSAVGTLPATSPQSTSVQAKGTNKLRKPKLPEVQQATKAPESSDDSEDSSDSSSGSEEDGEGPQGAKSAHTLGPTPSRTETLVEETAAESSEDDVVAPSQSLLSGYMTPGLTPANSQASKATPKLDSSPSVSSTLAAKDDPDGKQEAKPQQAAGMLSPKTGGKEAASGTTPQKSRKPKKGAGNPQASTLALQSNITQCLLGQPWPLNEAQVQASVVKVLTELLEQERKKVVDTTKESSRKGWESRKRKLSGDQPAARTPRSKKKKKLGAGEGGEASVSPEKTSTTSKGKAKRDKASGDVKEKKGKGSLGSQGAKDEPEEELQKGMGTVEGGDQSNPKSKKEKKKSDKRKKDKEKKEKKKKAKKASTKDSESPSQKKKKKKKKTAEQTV

[4] = target: T4, cysteines in MDA-MB-231 and Ramos cells (Homo sapiens, UniProt P42166)
T4 sequence (P42166 1-694): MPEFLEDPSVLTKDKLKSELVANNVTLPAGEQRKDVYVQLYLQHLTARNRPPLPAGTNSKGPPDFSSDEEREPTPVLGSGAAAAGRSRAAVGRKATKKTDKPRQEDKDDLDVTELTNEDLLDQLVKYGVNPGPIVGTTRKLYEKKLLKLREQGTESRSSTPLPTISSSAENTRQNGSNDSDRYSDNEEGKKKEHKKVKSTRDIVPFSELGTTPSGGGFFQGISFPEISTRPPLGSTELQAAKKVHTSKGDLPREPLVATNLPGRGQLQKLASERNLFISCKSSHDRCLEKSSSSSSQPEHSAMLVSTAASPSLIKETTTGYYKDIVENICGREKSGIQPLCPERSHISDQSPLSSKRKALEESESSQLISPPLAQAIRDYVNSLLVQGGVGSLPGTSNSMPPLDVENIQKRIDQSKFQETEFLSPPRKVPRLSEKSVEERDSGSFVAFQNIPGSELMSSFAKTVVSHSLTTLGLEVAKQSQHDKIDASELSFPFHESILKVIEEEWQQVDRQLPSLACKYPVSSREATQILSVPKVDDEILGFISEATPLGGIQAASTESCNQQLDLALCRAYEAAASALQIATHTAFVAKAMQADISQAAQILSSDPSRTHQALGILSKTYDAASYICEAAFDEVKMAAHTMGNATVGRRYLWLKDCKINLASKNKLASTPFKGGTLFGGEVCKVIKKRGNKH

| Compound | isoTOP-ABPP ratio Q9NS86_C187 ([2]; 200 μM, insitu, 231) | isoTOP-ABPP ratio Q13428_C38 ([3]; 200 μM, insitu, 231) | isoTOP-ABPP ratio P42166_C341 ([4]; 200 μM, insitu, 231) | isoTOP-ABPP ratio P42166_C561 ([4]; 200 μM, insitu, 231) | isoTOP-ABPP ratio Q99439_C164 ([1]; 200 μM, insitu, 231) | isoTOP-ABPP ratio Q13428_C1298 ([3]; 200 μM, insitu, 231) | further results |
| --- | --- | --- | --- | --- | --- | --- | --- |
| COc1ccc(C2CC(c3cccs3)=NN2C(=O)CCl)cc1 (stereo not shown) [compound 4] | – | – | – | – | – | – | isoTOP-ABPP reactivity Q99439_C164 CNN2 ([1]; 100 μM in situ 231): 1.5; isoTOP-ABPP reactivity Q9NS86_C187 LANCL2 ([2]; 100 μM in situ 231): 1.6; isoTOP-ABPP reactivity Q13428_C38 TCOF1 ([3]; 100 μM in situ 231): 2.8; isoTOP-ABPP reactivity Q13428_C1298 TCOF1 ([3]; 100 μM in situ 231): 5.6; isoTOP-ABPP reactivity P42166_C561 TMPO ([4]; 100 μM in situ 231): 20.0 |
| O=C(CCl)Nc1cccc2ncccc12 [compound 51] | 2.0 | 1.1 | 1.2 | 1.3 | – | – | isoTOP-ABPP ratio P42166_C684 ([4]; 200 μM, insitu, 231): 1.2 |
| CC1CCc2ccccc2N1C(=O)CCl (stereo not shown) [compound 45] | 3.1 | 2.8 | – | 20.0 | 1.8 | 4.7 | isoTOP-ABPP ratio P42166_C684 ([4]; 200 μM, insitu, 231): 6.8 |
| O=C(CCl)NC(=O)NC12CC3CC(CC(C3)C1)C2 [compound 12] | 2.0 | 4.7 | – | 16.1 | 0.9 | 20.0 | – |
| O=C(CCl)N1CCN(S(=O)(=O)c2ccccc2F)CC1 [compound 10] | 6.3 | 4.2 | – | 17.8 | 1.2 | 5.9 | isoTOP-ABPP ratio Q99439_C164 ([1]; 200 μM, insitu, ramos): 1.3; isoTOP-ABPP ratio, cysteine P42166_C518 ([4]; 200 μM, insitu, 231): 4.2; isoTOP-ABPP ratio, cysteine P42166_C629 ([4]; 200 μM, insitu, 231): 2.5; isoTOP-ABPP ratio, cysteine P42166_C684 ([4]; 200 μM, insitu, 231): 5.2 |
| O=C(CCl)N1CCN(CC(=O)N2CCOCC2)CC1 [compound 29] | – | – | – | – | – | – | isoTOP-ABPP ratio Q99439_C164 ([1]; 200 μM, insitu, ramos): 1.0; isoTOP-ABPP ratio Q9NS86_C187 ([2]; 200 μM, insitu, ramos): 1.7; isoTOP-ABPP ratio Q13428_C38 ([3]; 200 μM, insitu, ramos): 1.5; isoTOP-ABPP ratio P42166_C561 ([4]; 200 μM, insitu, ramos): 0.9; isoTOP-ABPP ratio P42166_C629 ([4]; 200 μM, insitu, ramos): 1.6 |
| CC(C)CCOCCNC(=O)CCl [compound 27] | 0.4 | 1.3 | 0.6 | 0.8 | – | 1.0 | – |
| O=C(CCl)N1CCC(Cc2ccccc2)CC1 [compound 9] | – | – | – | – | – | – | isoTOP-ABPP reactivity Q99439_C164 CNN2 ([1]; 200 μM, insitu, 231): 4.7; isoTOP-ABPP reactivity Q9NS86_C187 LANCL2 ([2]; 200 μM, insitu, 231): 15; isoTOP-ABPP reactivity P42166_C561 TMPO ([4]; 200 μM, insitu, 231): 3.7 |
| O=C(CCl)NC12CC3CC(CC(C3)C1)C2 [compound 21] | 0.9 | 1.5 | 1.7 | 1.4 | 0.9 | – | isoTOP-ABPP ratio, cysteine P42166_C518 ([4]; 200 μM, insitu, 231): 1.4; isoTOP-ABPP ratio, cysteine P42166_C629 ([4]; 200 μM, insitu, 231): 1.6 |
| COc1ccc2c(c1)CCCN2C(=O)CCl [compound 2] | – | – | – | – | – | – | isoTOP-ABPP reactivity Q13428_C38 TCOF1 ([3]; 200 μM, insitu, 231): 3.3; isoTOP-ABPP reactivity Q13428_C1298 TCOF1 ([3]; 200 μM, insitu, 231): 4.7; isoTOP-ABPP reactivity P42166_C341 TMPO ([4]; 200 μM, insitu, 231): 10.4; isoTOP-ABPP reactivity P42166_C561 TMPO ([4]; 200 μM, insitu, 231): 8.3; isoTOP-ABPP reactivity P42166_C629 TMPO ([4]; 200 μM, insitu, 231): 4.4 |
| Cn1cc(S(=O)(=O)N2CCOCC2)cc1C(=O)NC(=O)CCl [compound 11] | – | – | – | – | – | – | isoTOP-ABPP ratio Q99439_C164 ([1]; 100 μM in situ 231): 0.6; isoTOP-ABPP ratio Q9NS86_C187 ([2]; 100 μM in situ 231): 0.8; isoTOP-ABPP ratio Q13428_C38 ([3]; 100 μM in situ 231): 1.1; isoTOP-ABPP ratio Q13428_C1298 ([3]; 100 μM in situ 231): 0.8; isoTOP-ABPP ratio P42166_C341 ([4]; 100 μM in situ 231): 0.8; isoTOP-ABPP ratio P42166_C561 ([4]; 100 μM in situ 231): 0.6; isoTOP-ABPP ratio, cysteine P42166_C518 ([4]; 100 μM in situ 231): 0.8; isoTOP-ABPP ratio, cysteine P42166_C629 ([4]; 100 μM in situ 231): 0.6; isoTOP-ABPP ratio, cysteine P42166_C684 ([4]; 100 μM in situ 231): 0.7 |
| COc1ccccc1OCCNC(=O)CCl [compound 28] | – | 1.0 | – | 1.1 | 0.9 | 0.9 | – |
| O=C(CCl)NCCc1c[nH]c2ccccc12 [compound 13] | 1.0 | 1.6 | 1.3 | 1.2 | 0.9 | – | isoTOP-ABPP ratio Q99439_C164 ([1]; 200 μM, insitu, ramos): 1.3; isoTOP-ABPP ratio Q9NS86_C187 ([2]; 200 μM, insitu, ramos): 1.1; isoTOP-ABPP ratio, cysteine P42166_C629 ([4]; 200 μM, insitu, 231): 1.0; isoTOP-ABPP ratio, cysteine P42166_C684 ([4]; 200 μM, insitu, 231): 1.2; isoTOP-ABPP ratio P42166_C341 ([4]; 200 μM, insitu, ramos): 1.4; isoTOP-ABPP ratio P42166_C561 ([4]; 200 μM, insitu, ramos): 1.0 |
| Cc1ccc(C=C(C#N)C(=O)NCCN2CCOCC2)cc1 [compound 41] | 0.6 | 1.1 | 0.5 | 0.7 | 0.4 | 1.0 | – |

— patent publication US10670605B2, “Cysteine reactive probes and uses thereof” (The Scripps Research Institute, priority 2015, dated 2020)
